Source: PubChem BioAssay AID1963835 (Molecular Pharmacology Branch, DTP, NCI, 2024)

Tested on: 699152-130-R-J1-PDC complex spheroid viability
Experiment: Anticancer human tumor 699152-130-R-J1-PDC patient-derived pancreatic carcinoma cell line growth inhibition [POLQ]
Settings: for IC50: curve of first compound; for viability, T/C: stronger effect = lower value
Method in brief: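 Three-cell-type spheroids modelling solid tumor plus stroma served as the readout system; POL inhibitors were tested individually and in combination, concentration ranges set by clinical Cmax where known.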

[1] = second compound 0.0316 µM, first compound 0.0316 µM
[2] = second compound 0.0316 µM, first compound 0.1 µM
[3] = second compound 0.1 µM, first compound 0.0316 µM
[4] = second compound 0.1 µM, first compound 0.1 µM
[5] = second compound 0.316 µM, first compound 0.0316 µM
[6] = second compound 0.316 µM, first compound 0.1 µM
[7] = second compound 1 µM, first compound 0.0316 µM
[8] = second compound 1 µM, first compound 0.1 µM
[9] = second compound 3.16 µM, first compound 0.0316 µM
[10] = second compound 3.16 µM, first compound 0.1 µM
[11] = second compound 10 µM, first compound 0.0316 µM
[12] = second compound 10 µM, first compound 0.1 µM
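Also: spheroids exposed to agents for 7 days before viability reading.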
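For viability, T/C in this document: percent of DMSO vehicle control viability so 100% = vehicle and 0% = no viable signal.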

## CCc1cc2c(N3CCc4c(cc(Cn5ccnc5)cc4-c4cn(C)nc4C(F)(F)F)C3=O)cc(C)nc2c(OC)n1 + Nc1ccc(C#CCN(C(=O)Cc2ncc(C(F)(F)F)cc2C(F)(F)F)c2ccc(F)cc2)nn1
Second compound 0.0316 µM
  IC50: > 10 µM
Second compound 0.1 µM
  IC50: > 10 µM
Second compound 0.316 µM
  IC50: > 10 µM
Second compound 1 µM
  IC50: > 10 µM
Second compound 3.16 µM
  IC50: > 10 µM
Second compound 10 µM
  IC50: > 10 µM
[1]
  viability, T/C: 85.8%
[2]
  viability, T/C: 89.8%
Second compound 0.0316 µM, first compound 0.316 µM
  viability, T/C: 97.3%
Second compound 0.0316 µM, first compound 1 µM
  viability, T/C: 101%
Second compound 0.0316 µM, first compound 3.16 µM
  viability, T/C: 99.4%
Second compound 0.0316 µM, first compound 10 µM
  viability, T/C: 106%
[3]
  viability, T/C: 87.7%
[4]
  viability, T/C: 88.8%
Second compound 0.1 µM, first compound 0.316 µM
  viability, T/C: 96.9%
Second compound 0.1 µM, first compound 1 µM
  viability, T/C: 93.4%
Second compound 0.1 µM, first compound 3.16 µM
  viability, T/C: 100%
Second compound 0.1 µM, first compound 10 µM
  viability, T/C: 107%
[5]
  viability, T/C: 89.5%
[6]
  viability, T/C: 94.2%
Second compound 0.316 µM, first compound 0.316 µM
  viability, T/C: 101%
Second compound 0.316 µM, first compound 1 µM
  viability, T/C: 89.7%
Second compound 0.316 µM, first compound 3.16 µM
  viability, T/C: 97%
Second compound 0.316 µM, first compound 10 µM
  viability, T/C: 101%
[7]
  viability, T/C: 86.5%
[8]
  viability, T/C: 93.6%
Second compound 1 µM, first compound 0.316 µM
  viability, T/C: 95.6%
Second compound 1 µM, first compound 1 µM
  viability, T/C: 95.5%
Second compound 1 µM, first compound 3.16 µM
  viability, T/C: 100%
Second compound 1 µM, first compound 10 µM
  viability, T/C: 104%
[9]
  viability, T/C: 105%
[10]
  viability, T/C: 95.7%
Second compound 3.16 µM, first compound 0.316 µM
  viability, T/C: 102%
Second compound 3.16 µM, first compound 1 µM
  viability, T/C: 106%
Second compound 3.16 µM, first compound 3.16 µM
  viability, T/C: 107%
Second compound 3.16 µM, first compound 10 µM
  viability, T/C: 106%
[11]
  viability, T/C: 99.8%
[12]
  viability, T/C: 118%
Second compound 10 µM, first compound 0.316 µM
  viability, T/C: 110%
Second compound 10 µM, first compound 1 µM
  viability, T/C: 107%
Second compound 10 µM, first compound 3.16 µM
  viability, T/C: 117%
Second compound 10 µM, first compound 10 µM
  viability, T/C: 115%

## CC[C@@]1(O)C(=O)OCc2c1cc1n(c2=O)Cc2cc3c(CN(C)C)c(O)ccc3nc2-1 + Cc1cccc(N(C)C(=O)C2C(O)CCN2c2nc(C)cc(C(F)(F)F)c2C#N)c1
Second compound 0.0316 µM
  IC50: > 0.1 µM
Second compound 0.1 µM
  IC50: > 0.1 µM
Second compound 0.316 µM
  IC50: > 0.1 µM
Second compound 1 µM
  IC50: > 0.1 µM
Second compound 3.16 µM
  IC50: > 0.1 µM
Second compound 10 µM
  IC50: > 0.1 µM
Second compound 0.0316 µM, first compound 0.000316 µM
  viability, T/C: 104%
Second compound 0.0316 µM, first compound 0.001 µM
  viability, T/C: 118%
Second compound 0.0316 µM, first compound 0.00316 µM
  viability, T/C: 95.4%
Second compound 0.0316 µM, first compound 0.01 µM
  viability, T/C: 90.2%
[1]
  viability, T/C: 81.3%
[2]
  viability, T/C: 67.3%
Second compound 0.1 µM, first compound 0.000316 µM
  viability, T/C: 103%
Second compound 0.1 µM, first compound 0.001 µM
  viability, T/C: 103%
Second compound 0.1 µM, first compound 0.00316 µM
  viability, T/C: 91%
Second compound 0.1 µM, first compound 0.01 µM
  viability, T/C: 112%
[3]
  viability, T/C: 82.5%
[4]
  viability, T/C: 58.2%
Second compound 0.316 µM, first compound 0.000316 µM
  viability, T/C: 101%
Second compound 0.316 µM, first compound 0.001 µM
  viability, T/C: 99.2%
Second compound 0.316 µM, first compound 0.00316 µM
  viability, T/C: 116%
Second compound 0.316 µM, first compound 0.01 µM
  viability, T/C: 93.6%
[5]
  viability, T/C: 76.4%
[6]
  viability, T/C: 63.2%
Second compound 1 µM, first compound 0.000316 µM
  viability, T/C: 111%
Second compound 1 µM, first compound 0.001 µM
  viability, T/C: 97.5%
Second compound 1 µM, first compound 0.00316 µM
  viability, T/C: 111%
Second compound 1 µM, first compound 0.01 µM
  viability, T/C: 99.9%
[7]
  viability, T/C: 81.2%
[8]
  viability, T/C: 58.7%
Second compound 3.16 µM, first compound 0.000316 µM
  viability, T/C: 99.7%
Second compound 3.16 µM, first compound 0.001 µM
  viability, T/C: 106%
Second compound 3.16 µM, first compound 0.00316 µM
  viability, T/C: 112%
Second compound 3.16 µM, first compound 0.01 µM
  viability, T/C: 97.5%
[9]
  viability, T/C: 80.5%
[10]
  viability, T/C: 64.1%
Second compound 10 µM, first compound 0.000316 µM
  viability, T/C: 102%
Second compound 10 µM, first compound 0.001 µM
  viability, T/C: 105%
Second compound 10 µM, first compound 0.00316 µM
  viability, T/C: 95.6%
Second compound 10 µM, first compound 0.01 µM
  viability, T/C: 91.8%
[11]
  viability, T/C: 85.5%
[12]
  viability, T/C: 68.8%
